Structures are written as SMILES.

One series deals with COL1A1. In words: Red-COL1A1 mCherry reporter assay (fluorescence from reporter downstream of the endogenous COL1A1 promoter). The series is classed as cell-based, human. Particulars: increasing doses, immortalized tertBJ fibroblasts, FIG. 3A. From the text: In this example, RNA interference (“RNAi”) screening was used to identify genes that appear to inhibit collagen synthesis. Immortalized human skin fibroblasts (BJhTERT, available from ATCC, Manassas, Va. were modified to place an mCherry reporter gene downstream of the endogenous promoter for COL1A1 using […] (TALENs). COL1A1 is well known for its role in the synthesis of Type I collagen, sometimes referred to as collagen I, which is a fibrillar collagen that accounts for over 90% of the collagen found in the human body. The reporter gene codes for the mCherry RFP, which can be quantitated using known fluorescent protein detection techniques. Transforming growth factor beta (“TGFβ”), a well-known COL1A1 activating cytokine, was used in a fluorescence-activated cell sorting (“FACS”) technique to select for a cell line with low endogenous expression and high levels of inducible expression of the mCherry gene. […]
Automated image acquisition and analysis was used to quantitate the fluorescent protein. […] Images were analyzed using METAXPRESS brand high-content image analysis software from Molecular Devices. The percentage of cells with positive nuclear-localizing mCherry signal above background was determined using the “Translocation-Enhanced” module. […]
This increased fluorescence directly correlates to increased collagen synthesis. […]
(A reporter such as luciferase makes a cellular process visible.)

The subject of series [1] is immortalized tertBJ fibroblasts cells. In words: Cell count by DAPI staining of nuclei (toxicity). The series is classed as cell-based, human. Particulars: increasing concentrations, FIG. 3B. As to the method:
This increased fluorescence directly correlates to increased collagen synthesis. The results of the positive control (TGFβ), the vehicle control for the TGFβ (Media Control), and the vehicle control for the alpha-ergocryptine (DMSO control) are also illustrated in FIG. 3A. […] Cell count was determined by staining the nuclei with 4′,6-diamidino-2-phenylindole (DAPI), which is a fluorescent stain that binds strongly to adenine-thymine rich regions in DNA. DAPI staining is a well-known technique for determining cell count in fluorescence microscopy.

Regarding `CC(C)C[C@H]1C(=O)N2CCC[C@H]2[C@]2(O)O[C@](NC(=O)[C@@H]3C=C4c5cccc6[nH]cc(c56)C[C@H]4N(C)C3)(C(C)C)C(=O)N12` [alpha-ergocryptine], the “COL1A1 expression (fluorescence of mCherry reporter)” value in the series on COL1A1 is “increased COL1A1 expression”. Besides, the “toxicity as determined by cell counts (DAPI)” value in series [1] is listed as “not toxic”.

These data come from patent US20220146497A1, “Method of Modulating a Fibrotic Condition” (The Procter & Gamble Company, priority 2019, published 2022).
